Drawing on patent US10023590B2, “Substituted pyridine compounds having herbicidal activity” (BASF SE, priority 2014, dated 2018), this text covers Herbicidal activity and pest or weed control for eight compounds.

Holding throughout (format): in vivo
The subject of one data set is Oryza sativa. Description: Greenhouse post-emergence herbicidal activity on crop ORYSA (rice). From the text: (§1) The culture containers used were plastic flowerpots containing loamy sand with approximately 3.0% of humus as the substrate. The seeds of the test plants were sown separately for each species.
(§2) For the post-emergence treatment, the test plants were first grown to a height of 3 to 15 cm, depending on the plant habit, and only then treated with the active ingredients which had been suspended or emulsified in water. For this purpose, the test plants were either sown directly and grown in the same containers, or they were first grown separately as seedlings and transplanted into the test containers a few days prior to treatment.
(§3) Depending on the species, the plants were kept at 10-25° C. or 20-35° C., respectively.
(§4) The test period extended over 2 to 4 weeks. During this time, the plants were tended, and their response to the individual treatments was evaluated.
(§5) Evaluation was carried out using a scale from 0 to 100. 100 means no emergence of the plants, or complete destruction of at least the aerial moieties, and 0 means no damage, or normal course of growth. A good herbicidal activity is given at values of at least 70 and a very good herbicidal activity is given at values of at least 85.

The next data set concerns Abutilon theophrasti. The data set can be described thus: Greenhouse post-emergence herbicidal activity, ABUTH. The settings on record: ABUTH.
Description: as §1, §2, §3, §4, §5

Another data set has as its system Echinocloa crus-galli. Description: Greenhouse post-emergence herbicidal activity, ECHCG. The settings on record: Echinochloa crus-galli, ECHCG.
Description: as §1, §2, §3, §4, §5

A further data set relates to Amaranthus retroflexus. The data set can be described thus: Greenhouse post-emergence herbicidal activity, AMARE. The settings on record: AMARE.
Description: as §1, §2, §3, §4, §5

The next data set deals with Kochia scoparia. The data set can be described thus: Greenhouse post-emergence herbicidal activity, KCHSC. The settings on record: scale 0 to 100.
Description: as §1, §2, §3, §4, §5

A further data set concerns Chenopodium album. Description: Greenhouse post-emergence herbicidal activity, CHEAL.
Description: as §1, §2, §3, §4, §5

In the next data set the test system is Cirsium arvense. The data set can be described thus: Greenhouse post-emergence herbicidal activity, CIRAR. The settings on record: CIRAR, 0.125 kg/ha, scale 0 to 100.
Description: as §1, §2, §3, §4, §5

For the next data set, the system named is Zea mays. Description: Greenhouse post-emergence herbicidal activity on crop ZEAMX (corn, maize). On the set-up: key: 0 = no damage/normal growth, 100 = no emergence or complete destruction.
Description: as §1, §2, §3, §4, §5

A further data set concerns Ambrosia artemisiifolia. The data set can be described thus: Greenhouse post-emergence herbicidal activity, AMBEL. The settings on record: scale 0 to 100.
Description: as §1, §2, §3, §4, §5

[1] abbreviates: ORYSA (rice, crop), 0.031 kg/ha, scale 0 to 100.
The mark [2] stands for this setting: ORYSA (rice, crop), 0.063 kg/ha, scale 0 to 100.
[3] abbreviates: 2 kg/ha, scale 0 to 100, read-out: Herbicidal activity.
The mark [4] stands for this setting: application rate 2 kg/ha, read-out: Herbicidal activity.
Setting [5] is: crop ORYSA (rice), application rate 0.031 kg/ha.
The mark [6] stands for this setting: crop ORYSA (rice), application rate 0.063 kg/ha.
The mark [7] stands for this setting: crop ORYSA (rice), application rate 0.125 kg/ha.
Setting [8] is: crop ZEAMX (corn, maize), application rate 0.031 kg/ha.
Where [9] appears, read: crop ZEAMX (corn, maize), application rate 0.063 kg/ha.
[10] abbreviates: crop ZEAMX (corn, maize), application rate 0.125 kg/ha.

Molecules are shown by their SMILES. Like-named read-outs stand apart in the source and are kept apart here.

On to `CC1(C)c2cccnc2C(O)=C(c2c(Cl)ccc(NS(C)(=O)=O)c2Cl)S1(=O)=O` [I-6, N-[2,4-dichloro-3-(8-hydroxy-5,5-dimethyl-6,6-dioxo-thiopyrano[4,3-b]pyridin-7-yl)phenyl]methanesulfonamide], for which the Herbicidal activity in the data set with Oryza sativa (setting [1]) was found to be 0; in the data set with Oryza sativa (setting [2]) it was 40; in the data set on Kochia scoparia (0.031 kg/ha) it was 90; with Kochia scoparia (0.063 kg/ha), 98. Further, the pest or weed control at 2000 g/ha with Abutilon theophrasti (setting [3]), in the data set on Echinocloa crus-galli (setting [3]) and in the data set with Amaranthus retroflexus (setting [3]) was 100% in each case. Also, the pest or weed control at 31 g/ha in the data set with Amaranthus retroflexus (0.031 kg/ha, scale 0 to 100) was found to be 85%; in the data set on Chenopodium album (0.031 kg/ha, scale 0 to 100), 95%. In addition, the pest or weed control at 63 g/ha came out at 95% in the data set on Amaranthus retroflexus (0.063 kg/ha, scale 0 to 100) and 98% with Chenopodium album (0.063 kg/ha, scale 0 to 100). For the same compound, the pest or weed control at 125 g/ha with Amaranthus retroflexus (0.125 kg/ha, scale 0 to 100) is 98%; in the data set on Chenopodium album (0.125 kg/ha, scale 0 to 100) it was 98%; in the data set on Cirsium arvense, 100%.
In the case of `CCN(c1c(Cl)ccc(C2=C(O)c3ncccc3CS2(=O)=O)c1Cl)S(C)(=O)=O` [I-8, N-[2,6-dichloro-3-(8-hydroxy-6,6-dioxo-5H-thiopyrano[4,3-b]pyridin-7-yl)phenyl]-N-ethyl-methanesulfonamide], the Herbicidal activity with Oryza sativa (setting [1]) was found to be 0; in the data set on Oryza sativa (setting [2]) it was 25; in the data set on Zea mays (ZEAMX (corn, crop), 0.031 kg/ha, scale 0 to 100), 0; in the data set with Zea mays (ZEAMX (corn, crop), 0.063 kg/ha, scale 0 to 100), 0. Also, the pest or weed control at 2000 g/ha with Abutilon theophrasti (setting [3]), in the data set with Echinocloa crus-galli (setting [3]) and with Amaranthus retroflexus (setting [3]) was 100% each time. For the same compound, the pest or weed control at 31 g/ha was 90% in the data set with Echinocloa crus-galli (0.031 kg/ha, scale 0 to 100); 100% with Amaranthus retroflexus (0.031 kg/ha, scale 0 to 100); 100% in the data set on Chenopodium album (0.031 kg/ha, scale 0 to 100). For the same compound, the pest or weed control at 63 g/ha is 95% in the data set on Echinocloa crus-galli (0.063 kg/ha, scale 0 to 100); 90% in the data set with Amaranthus retroflexus (0.063 kg/ha, scale 0 to 100); 100% in the data set with Chenopodium album (0.063 kg/ha, scale 0 to 100). The pest or weed control at 125 g/ha in the data set with Echinocloa crus-galli (0.125 kg/ha, scale 0 to 100) was found to be 95%; in the data set on Chenopodium album (0.125 kg/ha, scale 0 to 100), 100%.
On to `Cc1c(C2=C(OC(=O)C(C)(C)C)c3ncccc3C(C)(C)S2(=O)=O)cccc1N(C)S(C)(=O)=O` [I-13, [5,5-dimethyl-7-[2-methyl-3-[methyl(methylsulfonyl)amino]phenyl]-6,6-dioxo-thiopyrano[4,3-b]pyridin-8-yl] 2,2-dimethylpropanoate], for which the Herbicidal activity worked out at 0 in the data set with Oryza sativa (ORYSA (rice, crop), 0.125 kg/ha, scale 0 to 100); 0 in the data set with Zea mays (ZEAMX (corn, crop), 0.125 kg/ha, scale 0 to 100); 90 in the data set with Kochia scoparia (0.125 kg/ha). For the same compound, the pest or weed control at 2000 g/ha was 75% with Echinocloa crus-galli (setting [3]) and 100% in the data set on Amaranthus retroflexus (setting [3]).
`CN(c1cccc(C2=C(O)c3ncccc3C(C)(C)S2(=O)=O)c1Cl)S(C)(=O)=O` [I-17, N-[2-chloro-3-(8-hydroxy-5,5-dimethyl-6,6-dioxo-thiopyrano[4,3-b]pyridin-7-yl)phenyl]-N-methyl-methanesulfonamide]: the Herbicidal activity was 10 in the data set on Oryza sativa (setting [2]), 100 with Ambrosia artemisiifolia (0.063 kg/ha) and 100 with Ambrosia artemisiifolia (0.125 kg/ha). Further, the pest or weed control at 2000 g/ha with Abutilon theophrasti (setting [3]), in the data set on Echinocloa crus-galli (setting [3]) and in the data set on Amaranthus retroflexus (setting [3]) was 100% in each case. Also, the pest or weed control at 31 g/ha with Echinocloa crus-galli (0.031 kg/ha, scale 0 to 100) worked out at 95%; with Amaranthus retroflexus (0.031 kg/ha, scale 0 to 100), 98%; in the data set on Chenopodium album (0.031 kg/ha, scale 0 to 100), 100%. Further, the pest or weed control at 63 g/ha in the data set with Amaranthus retroflexus (0.063 kg/ha, scale 0 to 100) amounted to 100%; with Chenopodium album (0.063 kg/ha, scale 0 to 100), 100%. The pest or weed control at 125 g/ha was found to be 100% in the data set with Amaranthus retroflexus (0.125 kg/ha, scale 0 to 100) and 100% in the data set with Chenopodium album (0.125 kg/ha, scale 0 to 100).
Consider `CN(c1c(Cl)ccc(C2=C(OC(=O)C(C)(C)C)c3ncccc3C(C)(C)S2(=O)=O)c1Cl)S(C)(=O)=O` [I-30], for which the pest or weed control at 2000 g/ha in the data set with Abutilon theophrasti (setting [4]), in the data set on Echinocloa crus-galli (setting [4]) and in the data set on Amaranthus retroflexus (setting [4]) was 100% in each case.
In the case of `CN(c1cccc(C2=C(O)c3ncccc3C(C)(C)S2(=O)=O)c1S(C)(=O)=O)S(C)(=O)=O` [I-34, N-[3-(8-hydroxy-5,5-dimethyl-6,6-dioxo-thiopyrano[4,3-b]pyridin-7-yl)-2-methylsulfonyl-phenyl]-N-methyl-methanesulfonamide], the Herbicidal activity is given as 0 in the data set on Oryza sativa (setting [5]); 0 with Oryza sativa (setting [6]); 0 in the data set with Oryza sativa (setting [7]); 0 in the data set on Zea mays (setting [8]); 0 in the data set with Zea mays (setting [9]); 15 in the data set on Zea mays (setting [10]). For the same compound, the pest or weed control at 125 g/ha in the data set on Echinocloa crus-galli (application rate 0.125 kg/ha) is 70%; with Amaranthus retroflexus (application rate 0.125 kg/ha), 98%; in the data set with Chenopodium album (application rate 0.125 kg/ha), 100%. Further, the pest or weed control at 31 g/ha in the data set with Amaranthus retroflexus (application rate 0.031 kg/ha) came to 90%; in the data set on Chenopodium album (application rate 0.031 kg/ha), 95%. In addition, the pest or weed control at 63 g/ha with Amaranthus retroflexus (application rate 0.063 kg/ha) was 95%; with Chenopodium album (application rate 0.063 kg/ha), 98%.
On to `CN(c1cccc(C2=C(O)c3ncccc3CS2(=O)=O)c1C(F)(F)F)S(C)(=O)=O` [I-35, N-[3-(8-hydroxy-6,6-dioxo-5H-thiopyrano[4,3-b]pyridin-7-yl)-2-(trifluoromethyl)phenyl]-N-methyl-methanesulfonamide], for which the Herbicidal activity with Oryza sativa (setting [5]) turned out to be 0; with Oryza sativa (setting [6]), 15; in the data set with Oryza sativa (setting [7]), 25; in the data set with Zea mays (setting [8]) it was 0; in the data set with Zea mays (setting [9]), 0; in the data set on Zea mays (setting [10]) it was 0. Moreover, the pest or weed control at 31 g/ha with Echinocloa crus-galli (application rate 0.031 kg/ha) was determined as 80%; in the data set on Chenopodium album (application rate 0.031 kg/ha) it was 95%. Moreover, the pest or weed control at 63 g/ha in the data set with Echinocloa crus-galli (application rate 0.063 kg/ha) is 90%; in the data set on Amaranthus retroflexus (application rate 0.063 kg/ha), 75%; in the data set with Chenopodium album (application rate 0.063 kg/ha), 100%. Besides, the pest or weed control at 125 g/ha turned out to be 90% in the data set with Echinocloa crus-galli (application rate 0.125 kg/ha), 100% in the data set with Amaranthus retroflexus (application rate 0.125 kg/ha) and 100% in the data set with Chenopodium album (application rate 0.125 kg/ha).
`CN(c1cccc(C2=C(O)c3ncccc3C(C)(C)S2(=O)=O)c1C(F)(F)F)S(C)(=O)=O` [I-36, N-[3-(8-hydroxy-5,5-dimethyl-6,6-dioxo-thiopyrano[4,3-b]pyridin-7-yl)-2-(trifluoromethyl)phenyl]-N-methyl-methanesulfonamide]: the Herbicidal activity in the data set with Oryza sativa (setting [5]) is recorded as 30; in the data set with Oryza sativa (setting [6]), 40; with Oryza sativa (setting [7]), 45; in the data set with Zea mays (setting [8]), 0; with Zea mays (setting [9]) it was 0; in the data set with Zea mays (setting [10]) it was 0. The values for the pest or weed control at 31 g/ha in the data set on Echinocloa crus-galli (application rate 0.031 kg/ha), with Amaranthus retroflexus (application rate 0.031 kg/ha) and in the data set with Chenopodium album (application rate 0.031 kg/ha) were 70%, 90% and 100%, respectively. Also, the pest or weed control at 63 g/ha is 90% in the data set on Echinocloa crus-galli (application rate 0.063 kg/ha), 95% in the data set with Amaranthus retroflexus (application rate 0.063 kg/ha) and 100% with Chenopodium album (application rate 0.063 kg/ha). Besides, the pest or weed control at 125 g/ha worked out at 95% in the data set with Echinocloa crus-galli (application rate 0.125 kg/ha), 98% in the data set on Amaranthus retroflexus (application rate 0.125 kg/ha) and 100% with Chenopodium album (application rate 0.125 kg/ha).
